# Results published in patent US20220389013A1, “PYRIDOPYRIMIDINONE COMPOUNDS AND APPLICATIONS THEREOF” (BeBetter Med Inc., priority 2020, published 2022).
# pIC50: −log10 of the molar value.
# Legend:
# [1] = tested on: H358 (KRAS G12C); experiment: Tumor cell proliferation inhibition assay (CellTiter-Glo), H358; type: cell-based, Human; details: 10% fetal bovine serum
# Description: (§1) The H358, H23 or MIA-Paca2 cells were digested, centrifuged and resuspended, and the cell density was measured with a Scepter automatic cell counter. Cells were diluted to a solution containing 44,000 cells per milliliter, then added to a 96-well culture plate at 90 μL per well. The 96-well plate was placed in a 5% CO2 incubator at 37° C., and after the cells were cultured for 24 hours, different concentrations of the compounds to be tested were added. Cells were incubated with compounds in the presence of 10% fetal bovine serum for 72 hours. The inhibition of cell growth was assessed by measuring ATP levels by using the CellTiter-Glo Luminescent Cell Viability Assay Kit (details in manufacturer's instructions). In brief, 30 μL of CellTiter-Glo reagent was added to each well and the plate was shaken for 10 minutes to induce cell lysis, then the fluorescent signal was detected and recorded with a Fluoroskan Ascent FL (Thermo). Maximum signal values were obtained from cells treated with DMSO for 72 hours. Minimum signal values were obtained with medium only (zero cell number). Inhibition rate %=(maximum signal value-compound signal value)/(maximum signal value-minimum signal value)×100%. Data were processed by using Graphpad prism5 software. IC50 values were calculated using a sigmoidal dose-response curve.
# [2] = tested on: MIA-Paca2 (KRAS G12C); experiment: Tumor cell proliferation inhibition assay (CellTiter-Glo), MIA-Paca2; type: cell-based, Human; details: 10% fetal bovine serum
# Description: as §1
# [3] = Pharmacokinetic (PK) experiment in rats by gavage; type: in vivo; details: rat, plasma, po, male SD rats, 20 mg/kg; for AUC(0-t): read-out: AUC0-24
# Description: Male SD rats, weighing 180-250 g, were fasted overnight before the test and stomach administrated with the test compound at 20 mg/kg. 15 minutes, 30 minutes, and 1, 2, 4, 6, 8, and 24 hours after administration, blood was taken from the end of the tail of the fracture, about 0.3 mL per time point, then placed in a centrifuge tube containing K2-EDTA, and centrifuged (2000 g, 10 min, at 4° C.). Plasma was collected and stored in an ultra-low temperature freezer at −80° C. 50 μL of plasma samples were vortexed with 135 μL of acetonitrile (containing 1 μg/mL internal standard) for protein precipitation and centrifuged, and the supernatant was collected for LC-MS/MS analysis.
# After the rats oral administrated with the Pyridopyrimidinone compounds provided by the present disclosure, the absorption is good, and the blood exposure is relatively high. […] Cmax refers to the maximum plasma concentration, T1/2 is the half-life, AUC0-24 refers to the area under the 0-24 hour time-concentration curve, and AUC0-inf refers to the area under the 0-Inf time-concentration curve.
SMILES,"pIC50 ([1]; Homo sapiens, NCI-H358, 72 h)","pIC50 ([2]; Homo sapiens, MIA PaCa-2, 72 h)",further results
"Cc1ccnc(C(C)C)c1-n1c(=O)nc(N2CCN(C(=O)/C=C/CN(C)C)C[C@@H]2C)c2cc(F)c(-c3cc4ccoc4cc3F)nc21 [Compound 114, (S,E)-4-(4-(4-(dimethylamino)but-2-enoyl)-2-methylpiperazin-1-yl)-6-fluoro-7-(6-fluorobenzofuran-5-yl)-1-(2-isopropyl-4-methylpyridin-3-yl)pyrido[2,3-d]pyrimidin-2(1H)-one]",< 6.30,< 6.30,melting point: 162 to 164 °C
"C=CC(=O)N1CCN(c2nc(=O)n(-c3c(C)ccnc3C(C)C)c3nc(-c4c(Cl)ccc5ccoc45)c(F)cc23)[C@@H](C)C1 [Compound 112, 4-((S)-4-acryloyl-2-methylpiperazin-1-yl)-7-(6-chlorobenzofuran-7-yl)-6-fluoro-1-(2-isopropyl-4-methylpyridin-3-yl)pyrido[2,3-d]pyrimidin-2(1H)-one]",7.30 to 8.00,7.00 to 7.30,–
"C=CC(=O)N1CCN(c2nc(=O)n(-c3c(C(C)C)ccnc3C(C)C)c3nc(-c4c(F)ccc5ccoc45)c(F)cc23)[C@@H](C)C1 [Compound 121, 4-((S)-4-acryloyl-2-methylpiperazin-1-yl)-1-(2,4-diisopropylpyridin-3-yl)-6-fluoro-7-(6-fluorobenzofuran-7-yl)pyrido[2,3-d]pyrimidin-2(1H)-one]",7.30 to 8.00,7.30 to 8.00,–
"C=CC(=O)N1CCN(c2nc(=O)n(-c3c(C)cccc3C(C)C)c3nc(-c4c(F)ccc5ccoc45)c(F)cc23)[C@@H](C)C1 [Compound 106, 4-((S)-4-acryloyl-2-methylpiperazin-1-yl)-6-fluoro-7-(6-fluorobenzofuran-7-yl)-1-(2-isopropyl-6-methylphenyl)pyrido[2,3-d]pyrimidin-2(1H)-one]",6.30 to 7.00,6.30 to 7.00,–
"C=CC(=O)N1CCN(c2nc(=O)n(-c3c(C)ccnc3C(C)C)c3nc(-c4c(F)ccc5ccoc45)c(Cl)cc23)C[C@@H]1CC#N (atropisomer, axis not shown; (M)) [Compound 101-1, 2-((2S)-1-acryloyl-4-(6-chloro-7-(6-fluorobenzofuran-7-yl)-1(M)-(2-isopropyl-4-methylpyridin-3-yl)-2-oxo-1,2-dihydropyrido[2,3-d]pyrimidin-4-yl)piperazin-2-yl)acetonitrile]",7.30 to 8.00,–,–
"C=CC(=O)N1CCN(c2nc(=O)n(-c3c(C)ccnc3C(C)C)c3nc(-c4c(F)c(OC)cc5ccoc45)c(Cl)cc23)[C@@H](C)C1 [Compound 111, 4-((S)-4-acryloyl-2-methylpiperazin-1-yl)-6-chloro-7-(6-fluoro-5-methoxybenzofuran-7-yl)-1-(2-isopropyl-4-methylpyridin-3-yl)pyrido[2,3-d]pyrimidin-2(1H)-one]",7.00 to 7.30,–,melting point: 101 to 113 °C
"C=CC(=O)N1CCN(c2nc(=O)n(-c3c(C)ccnc3C(C)C)c3nc(-c4c(F)ccc5c4OCO5)c(F)cc23)[C@@H](C)C1 [Compound 69, 4-((S)-4-acryloyl-2-methylpiperazin-1-yl)-6-fluoro-7-(5-fluorobenzo[d][1,3]dioxol-4-yl)-1-(2-isopropyl-4-methylpyridin-3-yl)pyrido[2,3-d]pyrimidin-2(1H)-one]",7.30 to 8.00,7.00 to 7.30,AUC(0-inf) [3]: 9930 ng·h/mL; Cmax [3]: 4390 ng/mL; Tmax [3]: 0.83 h; half-life [3]: 5.38 h; AUC(0-t) [3]: 9920 ng·h/mL
"C=CC(=O)N1CCN(c2nc(=O)n(-c3c(C)ccnc3C(C)C)c3nc(-c4c(F)c(O)cc5ccoc45)c(Cl)cc23)[C@@H](C)C1 [Compound 110, 4-((S)-4-acryloyl-2-methylpiperazin-1-yl)-6-chloro-7-(6-fluoro-5-hydroxybenzofuran-7-yl)-1-(2-isopropyl-4-methylpyridin-3-yl)pyrido[2,3-d]pyrimidin-2(1H)-one]",7.30 to 8.00,–,melting point: 92 to 104 °C
"C=CC(=O)N1CCN(c2nc(=O)n(-c3c(C)ccnc3C(C)C)c3nc(-c4cccc5ccoc45)c(F)cc23)[C@@H](C)C1 [Compound 107, (S)-4-(4-acryloyl-2-methylpiperazin-1-yl)-7-(benzofuran-7-yl)-6-fluoro-1-(2-isopropyl-4-methylpyridin-3-yl)pyrido[2,3-d]pyrimidin-2(1H)-one]",6.30 to 7.00,< 6.30,–
"C=CC(=O)N1CCN(c2nc(=O)n(-c3c(C)ccnc3C(C)C)c3nc(-c4c(F)ccc5c4OCCO5)c(F)cc23)[C@@H](C)C1 [Compound 72, 4-((S)-4-acryloyl-2-methylpiperazin-1-yl)-6-fluoro-7-(6-fluoro-2,3-dihydrobenzo[b][1,4]dioxin-5-yl)-1-(2-isopropyl-4-methylpyridin-3-yl)pyrido[2,3-d]pyrimidin-2(1H)-one]",7.30 to 8.00,7.30 to 8.00,–
"C=CC(=O)N1C[C@H](C)N(c2nc(=O)n(-c3c(C)ccnc3C(C)C)c3nc(-c4c(F)ccc5ccoc45)c(F)cc23)C[C@H]1C (atropisomer, axis not shown; (P)) [Compound 89-2, 4-((2S,5R)-4-acryloyl-2,5-dimethylpiperazin-1-yl)-6-fluoro-7-(6-fluorobenzofuran-7-yl)-1(P)-(2-isopropyl-4-methylpyridin-3-yl)pyrido[2,3-d]pyrimidin-2(1H)-one]",–,–,pIC50 ([1]; 72 hours): 7.96; pIC50 ([2]; 72 hours): < 6.30
"C=CC(=O)N1CCN(c2nc(=O)n(-c3c(C)ccnc3C(C)C)c3nc(-c4c(F)ccc5ccoc45)c(F)cc23)C[C@@H]1CC#N (atropisomer, axis not shown; (M)) [Compound 100-1, 2-((2S)-1-acryloyl-4-(6-fluoro-7-(6-fluorobenzofuran-7-yl)-1(M)-(2-isopropyl-4-methylpyridin-3-yl)-2-oxo-1,2-dihydropyrido[2,3-d]pyrimidin-4-yl)piperazin-2-yl)acetonitrile]",6.30 to 7.00,–,–

# Now from value to compound, other results behind:
"pIC50 ([1]; Homo sapiens, NCI-H358, 72 h)","pIC50 ([2]; Homo sapiens, MIA PaCa-2, 72 h)",SMILES,further results
> 8.00,7.30 to 8.00,"C=CC(=O)N1CCN(c2nc(=O)n(-c3c(C)ccnc3C(C)C)c3nc(-c4c(F)cc(F)c5ccoc45)c(Cl)cc23)[C@@H](C)C1 [Compound 102, 4-((S)-4-acryloyl-2-methylpiperazin-1-yl)-6-chloro-7-(4,6-difluorobenzofuran-7-yl)-1-(2-isopropyl-4-methylpyridin-3-yl)pyrido[2,3-d]pyrimidin-2(1H)-one]",AUC(0-inf) [3]: 14200 ng·h/mL; Cmax [3]: 3720 ng/mL; Tmax [3]: 1 h; half-life [3]: 2.85 h; AUC(0-t) [3]: 14200 ng·h/mL
> 8.00,7.30 to 8.00,"C=CC(=O)N1CCN(c2nc(=O)n(-c3c(C)ccnc3C(C)C)c3nc(-c4c(Cl)ccc5ccoc45)c(Cl)cc23)[C@@H](C)C1 [Compound 105, 4-((S)-4-acryloyl-2-methylpiperazin-1-yl)-6-chloro-7-(6-chlorobenzofuran-7-yl)-1-(2-isopropyl-4-methylpyridin-3-yl)pyrido[2,3-d]pyrimidin-2(1H)-one]",–
> 8.00,7.30 to 8.00,"C=CC(=O)N1CCN(c2nc(=O)n(-c3c(C)ccnc3C(C)C)c3nc(-c4c(F)ccc5c4OCCO5)c(Cl)cc23)[C@@H](C)C1 [Compound 98, 4-((S)-4-acryloyl-2-methylpiperazin-1-yl)-6-chloro-7-(6-fluoro-2,3-dihydrobenzo[b][1,4]dioxin-5-yl)-1-(2-isopropyl-4-methylpyridin-3-yl)pyrido[2,3-d]pyrimidin-2(1H)-one]",–
7.96,6.30 to 7.00,"C=CC(=O)N1CCN(c2nc(=O)n(-c3ccccc3C(C)C)c3nc(-c4c(F)ccc5ccoc45)c(F)cc23)[C@@H](C)C1 [Compound 120, 4-((S)-4-acryloyl-2-methylpiperazin-1-yl)-6-fluoro-7-(6-fluorobenzofuran-7-yl)-1-(2-isopropylphenyl)pyrido[2,3-d]pyrimidin-2(1H)-one]",–
9.00,< 6.30,"C=CC(=O)N1CCN(c2nc(=O)n(-c3c(C)ccnc3C(C)C)c3nc(-c4cccc5cc[nH]c45)c(F)cc23)[C@@H](C)C1 [Compound 82, (S)-4-(4-acryloyl-2-methylpiperazin-1-yl)-6-fluoro-7-(1H-indol-7-yl)-1-(2-isopropyl-4-methylpyridin-3-yl)pyrido[2,3-d]pyrimidin-2(1H)-one]",–
> 8.00,–,"C=CC(=O)N1CCN(c2nc(=O)n(-c3c(C(C)C)ncnc3C(C)C)c3nc(-c4c(F)ccc5ccoc45)c(Cl)cc23)[C@@H](C)C1 [Compound 118, 4-((S)-4-acryloyl-2-methylpiperazin-1-yl)-6-chloro-1-(4,6-diisopropylpyrimidin-5-yl)-7-(6-fluorobenzofuran-7-yl)pyrido[2,3-d]pyrimidin-2(1H)-one]",melting point: 254 to 256 °C
